Laboratory results published in EP3056202A1, “BENZOPYRROLIDONE DERIVATIVES POSSESSING ANTIVIRAL AND ANTICANCER PROPERTIES” (Max-Planck-Gesellschaft zur Förderung der Wissenschaften …, priority 2015, dated 2016).
≈ marks a conversion by molar mass, not a printed value.

Assays:
human Akt1 kinase = human Akt1 kinase (Homo sapiens, UniProt P31749); assay: In vitro Akt1 assay (IMAP fluorescence polarization, phosphorylation of TAMRA-peptide); format: biochemical; conditions: 40 µM ATP
Description: The inhibition of Akt1 by the compounds described in the present invention were determined measuring the phosphorylation of a fluorescently-labeled peptide (TAMRA-peptide) by human Akt1 kinase by fluorescent polarization using a commercially available IMAP Screening Express Assay Kit (Molecular Devices).
Akt1 kinase assays were performed in low protein binding 384-well plates (Corning). Test compounds were diluted in 100% DMSO to 5 mM stock concentration and then further dilutions were made in H2O or 100% DMSO to desirable concentrations.
Each reaction consisted of 5 nM enzyme: Akt1 kinase, 400 nM TAMRA-peptide (5-TAMRA-GRTGRRNSI-COOH; Genecust), 40 µM ATP and kinase buffer: 20 mM MES pH6, 1 mM DTT, 10 mM MgCl2, 2 mM MnCl2, 0.01 V/V% TritonX (all reagents from Sigma-Aldrich).
(§1) For each reaction, 4 or 6 µl containing TAMRA-peptide, ATP and kinase buffer were combined with 2 µl diluted compound in H2O or 0.02 µl compound in 100% DMSO. The kinase reaction was started by the addition of 2 µl diluted enzyme. The reaction was allowed to run for 1 hour at room temperature. The reaction was stopped by adding 15 µl IMAP beads (1:400 beads in progressive (75% buffer A, 25% buffer B) 1x buffer). After an additional hour, fluorescent polarization (Ex: 550-10 nm, Em: 590-10 nm, Dich: 561 nm) was measured using an Analyst GT (Molecular Devices).

human Ack1 kinase = human Ack1 kinase (Homo sapiens, UniProt Q07912); assay: In vitro Ack1 assay (TranScreener ADP2 FP, generation of ADP); format: biochemical; conditions: 12.5 uM compound; 3.5 µM ATP; read-out: Ack1 inh% @12.5 uM
Description: The activity of the compounds described in the present invention can be determined by the following kinase assay, which measures the generation of ADP by human Ack1 kinase by fluorescent polarization using a commercially available TranScreener ADP2 FP Assay Kit (BellBrook Labs).
Ack1 kinase assays were performed in low protein binding 384-well plates (Corning). Test compounds were diluted in 100% DMSO to 5 mM stock concentration and then further dilutions were made in H2O or 100% DMSO to desirable concentrations.
Each reaction consisted of 5 nM enzyme: Ack1 kinase, Poly Glu-Tyr (4:1) (Sigma), 3.5 µM ATP and kinase buffer: 20 mM HEPES pH7.5, 1 mM DTT, 2 mM MgCl2, 0.4 mM MnCl2, 0.01 V/V% Tween20 (all reagents from Sigma-Aldrich)
For each reaction, 4 or 6 µl containing Poly Glu-Tyr (4:1), ATP and kinase buffer were combined with 2 µl diluted compound in H2O or 0.02 µl compound in 100% DMSO. The kinase reaction was started by the addition of 2 µl diluted enzyme. The reaction was allowed to run for 1 hour at room temperature. The reaction was stopped by addition of 8 µl ADP detection mixture (1 x) (1 x Detection buffer + 4.78 µg/ml ADP2 Ab + 4 nM ADP Alexa633 Tracer). After an additional hour, fluorescent polarization (Ex: 630-35 nm, Em: 680-30 nm, Dich: 650 nm) was measured using an Analyst GT (Molecular Devices).

human Clk1 kinase = biological target: T1, human Clk1 kinase (Homo sapiens, UniProt P49759); assay: In vitro Clk1 assay (IMAP fluorescence polarization); format: biochemical; conditions: 0.45 µM ATP
T1 construct: Each reaction consisted of 4 nM enzyme: Clk1 kinase domain
Description: The activity of the compounds described in the present invention can be determined by the following kinase assay, which measures the phosphorylation of a fluorescently-labeled peptide by human Clk1 kinase by fluorescent polarization using a commercially available IMAP Screening Express Assay Kit (Molecular Devices).
Clk1 kinase assays were performed in low protein binding 384-well plates (Corning). Test compounds were diluted in 100% DMSO to 5 mM stock concentration and then further dilutions were made in H2O or 100% DMSO to desirable concentrations.
Each reaction consisted of 4 nM enzyme: Clk1 kinase domain, 400 nM TAMRA-AFRREWSPGKEAKK-NH2 (Genecust), 0.45 µM ATP (Sigma) and kinase buffer: 20 mM TRIS pH 8, 1 mM DTT, 0.4 mM MgCl2, 0.4 mM MnCl2, 0.01 V/V% Tween20 (all reagents from Sigma-Aldrich)
as §1, with “(1:600” for “(1:400”, “(80 %” for “(75%”, “20%” for “25%”

[1] = tested on: H1 N1 influenza virus strain A/WSN/33; assay: microbe, parasite or virus in culture; format: cell-based; conditions: 36 h, read-out: Influenza replication IC50
[2] = tested on: A549 human lung carcinoma cells; assay: Cell-based EC50 determination, A549 cells (CellTiter-Glo cell viability); conditions: A549, 24 h, read-out: A549 EC50 24h
Description: A549 human lung carcinoma cells were cultured in RPMI 1640 medium (Sigma) supplemented with 10% fetal bovine serum (Sigma) and Antibiotic-Antimycotic (Sigma) in tissue culture flasks at 37°C in a humidified 5% CO2 atmosphere. Cells were routinely assayed for mycoplasma contamination.
Two thousand cells were plated in 384-well tissue culture plates, and treated after 24 hours with a 10-point dilution series of the compounds (1.5 nM-30 uM), using the vehicle, DMSO as control. Cells were incubated for 24 hours after which the relative cell density was determined by CellTiter-Glo Luminescent Cell Viability Assay (Promega). This method determines the number of metabolically active cells in the culture based on quantitation of the ATP present. The luminescent signal was measured with an Analyst GT multimode reader (Molecular Devices). […]

physchem = format: physicochemical; conditions: kinetic from dmso stock
Description: Samples were diluted in DMSO (control), phosphate buffer pH = 7.4 and pH = 2.0, from 5mM stock solutions (solved in DMSO), with a 120 µM final concentration. The samples were incubated for 24 hours at room temperature followed by 30 minutes centrifugation at 3700 rpm. 40 µl of the supernatants were injected into HPLC (Waters 2795 Alliance HPLC equipped with Waters 996 PDA Detector (HPLC column: Waters XBridge, RP C18, 3.5 µm, 4.6 mm x 50 mm; gradient MeCN/H2O, containing 0.1% HCOOH: 5% MeCN (0.5 min), 5% to 95% MeCN (5 min), 95% MeCN (0.5 min); flow rate: 2.0 ml/min)) and the AUC values (measured on sample specific wavelength) of the buffered samples were divided by the AUC values (same wavelength as buffered samples') of the DMSO control samples. Table 3: Solubility in water for several compounds according to general formula (I)

[3] = tested on: HCT-116 human colon carcinoma cell line; assay: In vitro growth inhibition of colon carcinoma cells, HCT-116 (CellTiter-Glo); format: cell-based; conditions: 72 hours incubation, read-out: HCT116 EC50
[4] = tested on: HKE3 human colon carcinoma cell line; assay: In vitro growth inhibition of colon carcinoma cells, HKE3 (CellTiter-Glo); format: cell-based; conditions: 72 hours incubation
[5] = tested on: HepG2 hepatoblastomaderived cell line; assay: In vitro growth inhibition, HepG2 (CellTiter-Glo); format: cell-based; conditions: Homo sapiens, 72 hours incubation

Sequence of human Akt1 kinase (P31749 whole entry): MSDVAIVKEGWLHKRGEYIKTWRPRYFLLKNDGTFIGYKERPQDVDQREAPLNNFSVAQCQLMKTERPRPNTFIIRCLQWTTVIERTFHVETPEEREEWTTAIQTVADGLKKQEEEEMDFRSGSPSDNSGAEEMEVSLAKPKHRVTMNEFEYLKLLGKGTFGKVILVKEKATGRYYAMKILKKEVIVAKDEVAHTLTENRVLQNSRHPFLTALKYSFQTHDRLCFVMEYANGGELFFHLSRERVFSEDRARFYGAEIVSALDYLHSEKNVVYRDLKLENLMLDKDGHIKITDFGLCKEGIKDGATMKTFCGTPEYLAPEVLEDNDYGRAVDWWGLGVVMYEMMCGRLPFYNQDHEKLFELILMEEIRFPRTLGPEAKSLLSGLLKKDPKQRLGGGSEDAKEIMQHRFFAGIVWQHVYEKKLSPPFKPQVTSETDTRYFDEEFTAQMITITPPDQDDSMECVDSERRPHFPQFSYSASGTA
T1 sequence (P49759 161-477 limits assumed): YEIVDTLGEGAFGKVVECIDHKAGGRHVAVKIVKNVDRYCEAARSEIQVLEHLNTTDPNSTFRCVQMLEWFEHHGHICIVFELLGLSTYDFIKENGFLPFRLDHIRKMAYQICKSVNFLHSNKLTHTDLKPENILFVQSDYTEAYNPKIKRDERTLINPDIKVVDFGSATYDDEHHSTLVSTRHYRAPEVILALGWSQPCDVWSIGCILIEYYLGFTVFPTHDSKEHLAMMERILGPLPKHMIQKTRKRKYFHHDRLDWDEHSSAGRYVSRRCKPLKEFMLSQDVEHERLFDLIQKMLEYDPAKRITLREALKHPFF
Sequence of human Ack1 kinase (Q07912 whole entry): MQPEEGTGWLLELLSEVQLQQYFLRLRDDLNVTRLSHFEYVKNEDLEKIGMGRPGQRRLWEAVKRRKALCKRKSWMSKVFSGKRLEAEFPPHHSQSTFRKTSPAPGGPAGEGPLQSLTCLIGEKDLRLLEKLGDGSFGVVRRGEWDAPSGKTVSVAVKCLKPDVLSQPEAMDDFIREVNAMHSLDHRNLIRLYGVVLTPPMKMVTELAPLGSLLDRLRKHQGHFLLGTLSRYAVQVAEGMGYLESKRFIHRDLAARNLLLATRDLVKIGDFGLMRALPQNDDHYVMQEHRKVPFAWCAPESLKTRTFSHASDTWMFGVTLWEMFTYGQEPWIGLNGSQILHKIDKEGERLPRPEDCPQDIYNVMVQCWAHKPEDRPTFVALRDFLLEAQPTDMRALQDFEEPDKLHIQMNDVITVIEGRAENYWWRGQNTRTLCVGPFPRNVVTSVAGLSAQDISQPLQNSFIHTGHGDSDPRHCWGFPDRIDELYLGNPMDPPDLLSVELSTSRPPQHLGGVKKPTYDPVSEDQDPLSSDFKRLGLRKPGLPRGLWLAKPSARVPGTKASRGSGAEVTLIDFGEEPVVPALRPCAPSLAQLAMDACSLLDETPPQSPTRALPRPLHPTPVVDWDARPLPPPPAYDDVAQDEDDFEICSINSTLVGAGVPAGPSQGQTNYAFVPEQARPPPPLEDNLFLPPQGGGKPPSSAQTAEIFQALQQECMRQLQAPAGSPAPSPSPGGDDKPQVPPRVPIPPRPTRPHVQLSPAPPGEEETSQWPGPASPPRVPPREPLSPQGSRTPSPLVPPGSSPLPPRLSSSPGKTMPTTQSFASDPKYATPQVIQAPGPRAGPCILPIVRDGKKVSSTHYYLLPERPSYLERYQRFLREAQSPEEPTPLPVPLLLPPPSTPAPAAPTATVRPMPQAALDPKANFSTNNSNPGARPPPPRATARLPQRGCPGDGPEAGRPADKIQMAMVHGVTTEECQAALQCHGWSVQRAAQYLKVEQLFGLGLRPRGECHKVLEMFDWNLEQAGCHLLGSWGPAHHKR

Row | SMILES | inhibition at 12.5 µM (human Akt1 kinase; 12.5 uM compound, read-out: Akt1 inh% @12.5 uM) | IC50 (human Akt1 kinase) | inhibition at 12.5 µM (human Ack1 kinase) | IC50 (human Clk1 kinase) | IC50 [1] | EC50 [2] | solubility at 24 h (physchem; pH 2, aqueous buffer) | solubility at 24 h (physchem; pH 7.4, aqueous buffer) | EC50 [3] | EC50 [4] | EC50 [5]
1 | O=C1Nc2ccc(C(=O)NCc3ccccc3)cc2/C1=C(/Nc1ccc(CN2CCCCC2)cc1)c1ccccc1 [Compound 20, (3Z)-N-benzyl-2-oxo-3-(phenyl{[4-(piperidin-1-ylmethyl)phenyl]amino}methylene)indoline-5-carboxamide] | 91.6% | 910 nM | 72.7% | 10 nM | < 10 nM | > 30000 nM | 110 to 120 µM (≈ 59.7 to 65.1 µg/mL) | < 10 µM | 20 nM | 10 nM | 790 nM
2 | C[C@@H](NC(=O)c1ccc2c(c1)/C(=C(/Nc1ccc(CN3CCN(C)CC3)cc1)c1ccccc1)C(=O)N2)c1ccccc1 [Compound 38, (3Z)-3-[({4-[(4-methylpiperazin-1-yl)methyl]phenyl}amino)(phenyl)methylene]-2-oxo-N-[(1R)-1-phenylethyl]indoline-5-carboxamide] |  | 1830 nM |  | 10 nM | < 10 nM | 3670 nM | 110 to 120 µM (≈ 62.9 to 68.6 µg/mL) | 10 to 20 µM (≈ 5.72 to 11.4 µg/mL) | 10 nM | 10 nM | 1120 nM
3 | CC[C@H](NC(=O)c1ccc2c(c1)/C(=C(/Nc1ccc(CN3CCCCC3)cc1)c1ccccc1)C(=O)N2)c1ccccc1 [Compound 32, (3Z)-2-oxo-3-(phenyl{[4-(piperidin-1-ylmethyl)phenyl]amino}methylene)-N-[(1S)-1-phenylpropyl]indoline-5-carboxamide] |  | > 12500 nM |  | 100 nM | 10100 nM | 6380 nM | 110 to 120 µM (≈ 62.8 to 68.5 µg/mL) | < 10 µM |  |  | 
4 | COc1ccc(CNC(=O)c2ccc3c(c2)/C(=C(/Nc2ccc(CN4CCN(C)CC4)cc2)c2ccccc2)C(=O)N3)cc1OC [Compound 39, (3Z)-N-(3,4-dimethoxybenzyl)-3-[({4-[(4-methylpiperazin-1-yl)methyl]phenyl}amino)(phenyl)methylene]-2-oxoindoline-5-carboxamide] |  | 12300 nM |  | 10 nM | 100 nM | 18800 nM | 110 to 120 µM (≈ 68 to 74.1 µg/mL) | < 10 µM | 3800 nM | 2960 nM | 24200 nM
5 | CC[C@@H](NC(=O)c1ccc2c(c1)/C(=C(/Nc1ccc(CN3CCN(C)CC3)cc1)c1ccccc1)C(=O)N2)c1ccccc1 [Compound 37, (3Z)-3-[({4-[(4-methylpiperazin-1-yl)methyl]phenyl}amino)(phenyl)methylene]-2-oxo-N-[(1R)-1-phenylpropyl]indoline-5-carboxamide] |  | 2050 nM |  | 10 nM | < 10 nM | 2010 nM | 110 to 120 µM (≈ 64.4 to 70.3 µg/mL) | < 10 µM | 1 nM | < 1.52 nM | 360 nM
6 | C[C@@H](NC(=O)c1ccc2c(c1)/C(=C(/Nc1ccc(CN3CCN(C)CC3)cc1)c1ccccc1)C(=O)N2)c1cccc(Cl)c1 [Compound 36, (3Z)-N-[(1R)-1-(3-chlorophenyl)ethyl]-3-[({4-[(4-methylpiperazin-1-yl)methyl]phenyl}amino)(phenyl)methylene]-2-oxoindoline-5-carboxamide] |  | 330 nM |  | 20 nM | < 10 nM | 1770 nM | 100 to 110 µM (≈ 60.6 to 66.7 µg/mL) | < 10 µM | 20 nM | 20 nM | 640 nM
7 | COc1cccc(CNC(=O)c2ccc3c(c2)/C(=C(/Nc2ccc(CN4CCN(C)CC4)cc2)c2ccccc2)C(=O)N3)c1 [Compound 40, (3Z)-N-(3-methoxybenzyl)-3-[({4-[(4-methylpiperazin-1-yl)methyl]phenyl}amino)(phenyl)methylene]-2-oxoindoline-5-carboxamide] |  | 3400 nM |  | 10 nM | < 10 nM | 14600 nM | 110 to 120 µM (≈ 64.6 to 70.5 µg/mL) | < 10 µM | 110 nM | 80 nM | 10000 nM
8 | COc1cccc([C@@H](C)NC(=O)c2ccc3c(c2)/C(=C(/Nc2ccc(CN4CCN(C)CC4)cc2)c2ccccc2)C(=O)N3)c1 [Compound 35, (3Z)-N-[(1R)-1-(3-methoxyphenyl)ethyl]-3-[({4-[(4-methylpiperazin-1-yl)methyl]phenyl}amino)(phenyl)methylene]-2-oxoindoline-5-carboxamide] |  | 2510 nM |  | 10 nM | 20 nM | 4990 nM | 110 to 120 µM (≈ 66.2 to 72.2 µg/mL) | 10 to 20 µM (≈ 6.02 to 12 µg/mL) | 30 nM | 20 nM | 2120 nM
